Results: patent publication US8193160B2 (priority 2006, dated 2012)

Assays:
[1] = tested on: Magnaporthe vegetative mycelia, abc3Δ mutant; format: cell-based
abc3Δ mutant = format: cell-based, Magnaporthe grisea

Actinomycin D
Minimum Inhibitory Concentration (MIC), abc3Δ [1]: 3.5 µg/mL

CCCCNC(=O)n1c(NC(=O)OC)nc2ccccc21 [Benomyl]
Minimum Inhibitory Concentration (MIC), abc3Δ [1]: 2 µg/mL

CCC(=C/[C@H](C)C/C=C/C(C)=C/[C@@H](C)C(=O)[C@@H](C)[C@H](O)[C@@H](C)C/C(C)=C/C(=O)O)/C=C/[C@@H]1OC(=O)C=C[C@@H]1C [Leptomycin B]
Minimum Inhibitory Concentration (MIC), abc3Δ [1]: 0.0075 µg/mL

OC(Cn1cncn1)(Cn1cncn1)c1ccc(F)cc1F [Fluconazole]
Minimum Inhibitory Concentration (MIC), abc3Δ [1]: 2500 µg/mL

OO [hydrogen peroxide]
growth under oxidative stress (abc3Δ mutant): lethal

Gramicidin D
Minimum Inhibitory Concentration (MIC), abc3Δ [1]: 180 µg/mL

C[C@H]1CCC/C=C/[C@@H]2C[C@H](O)C[C@H]2[C@H](O)/C=C/C(=O)O1 [Brefeldin A]
Minimum Inhibitory Concentration (MIC), abc3Δ [1]: 40 µg/mL

CC(C)[C@@H]1NC(=O)[C@H](C)OC(=O)[C@@H](C(C)C)NC(=O)[C@@H](C(C)C)OC(=O)[C@H](C(C)C)NC(=O)[C@H](C)OC(=O)[C@@H](C(C)C)NC(=O)[C@@H](C(C)C)OC(=O)[C@H](C(C)C)NC(=O)[C@H](C)OC(=O)[C@@H](C(C)C)NC(=O)[C@@H](C(C)C)OC1=O [Valinomycin]
Minimum Inhibitory Concentration (MIC), abc3Δ [1]: 3 µg/mL
